Results taken from patent US6737383B1, “Herbicidal oxadiazolidines” (priority 1999, dated 2004).

What was measured:
bedstraw = test: Test B pre/postemergence bedstraw; assay type: in vivo, Galium aparine; conditions: Preemergence
How it was run: (§1)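 Herbicidal effect was estimated by eye on a ten-point control scale after plants spent twelve to sixteen days in a greenhouse following soil or foliar treatment. Foliar sprays targeted plants at one to four leaves; all doses were formulated in a non-phytotoxic solvent with surfactant.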

wild oat = test: Test B pre/postemergence wild oat; assay type: in vivo, Avena fatua; conditions: Preemergence
How it was run: as §1

morningglory = test: Test B pre/postemergence morningglory; assay type: in vivo, Ipomoea hederacea; conditions: Preemergence
How it was run: as §1

purple nutsedge = test: Test B pre/postemergence purple nutsedge; assay type: in vivo, Cyperus rotundus; conditions: Preemergence, scale of 0 to 10 where 0 is no effect and 10 is complete control
How it was run: as §1

blackgrass = test: Test B pre/postemergence blackgrass; assay type: in vivo, Alopecurus myosuroides; conditions: Preemergence
How it was run: as §1

surinam grass = test: Test B pre/postemergence surinam grass; assay type: in vivo, Brachiaria decumbens; conditions: Preemergence
How it was run: as §1

rape = test: Test B pre/postemergence rape; assay type: in vivo, Brassica napus; conditions: Preemergence
How it was run: as §1

corn = test: Test B pre/postemergence corn; assay type: in vivo, Zea mays; conditions: Preemergence
How it was run: as §1

wheat = test: Test B pre/postemergence wheat; assay type: in vivo, Triticum aestivum; conditions: Preemergence
How it was run: as §1

giant foxtail = test: Test B pre/postemergence giant foxtail; assay type: in vivo, Setaria faberii; conditions: Preemergence
How it was run: as §1

sugar beet = test: Test B pre/postemergence sugar beet; assay type: in vivo, Beta vulgaris; conditions: Preemergence
How it was run: as §1

crabgrass = test: Test B pre/postemergence crabgrass; assay type: in vivo, Digitaria sanguinalis; conditions: Preemergence
How it was run: as §1

pigweed = test: Test B pre/postemergence pigweed; assay type: in vivo, Amaranthus retroflexus; conditions: Preemergence
How it was run: as §1

velvetleaf = test: Test B pre/postemergence velvetleaf; assay type: in vivo, Abutilon theophrasti; conditions: Preemergence
How it was run: as §1

cocklebur = test: Test B pre/postemergence cocklebur; assay type: in vivo, Xanthium strumarium; conditions: Preemergence
How it was run: as §1

soybean = test: Test B pre/postemergence soybean; assay type: in vivo, Glycine max; conditions: Preemergence
How it was run: as §1

[1] = Rate 62 g/ha, scale of 0 to 10 where 0 is no effect and 10 is complete control
[2] = Rate 125 g/ha, scale of 0 to 10 where 0 is no effect and 10 is complete control
[3] = Rate 250 g/ha, scale 0 to 10 (0 no effect, 10 complete control)
[4] = Rate 500 g/ha, scale of 0 to 10 where 0 is no effect and 10 is complete control

CC(C)N(C(=O)n1oc(=O)n(CCF)c1=O)c1ccccc1 [Compound 669]
10: Wild oats plant response rating (wild oat; [1]) | Wild oats plant response rating (wild oat; [2]) | Plant response rating, Wild oats (wild oat; [3]) | Plant response rating, Wild oats (wild oat; [4]) | Blackgrass plant response rating (blackgrass; [2]) | Plant response rating, Blackgrass (blackgrass; [3]) | Plant response rating, Blackgrass (blackgrass; [4]) | Plant response rating, B. signalgrass (surinam grass; [3]) | Plant response rating, B. signalgrass (surinam grass; [4]) | Plant response rating, Giant foxtail (giant foxtail; [3]) | Plant response rating, Giant foxtail (giant foxtail; [4]) | Plant response rating, Crabgrass (crabgrass; [4]) | Redroot pigweed plant response rating (pigweed; [2]) | Plant response rating, Redroot pigweed (pigweed; [3]) | Plant response rating, Redroot pigweed (pigweed; [4])
2: Rape plant response rating (rape; [1]) | Corn plant response rating (corn; [1]) | Soybean plant response rating (soybean; [2])
4: Rape plant response rating (rape; [2])
3: Plant response rating, Soybean (soybean; [3])
5: Wheat plant response rating (wheat; [2])
8: B. signalgrass plant response rating (surinam grass; [1]) | B. signalgrass plant response rating (surinam grass; [2]) | Plant response rating, Rape (rape; [3]) | Plant response rating, Wheat (wheat; [3]) | Plant response rating, Wheat (wheat; [4]) | Sugarbeets plant response rating (sugar beet; [2]) | Plant response rating, Sugarbeets (sugar beet; [3])
7: Bedstraw plant response rating (bedstraw; [2])
9: Plant response rating, Bedstraw (bedstraw; [3]) | Plant response rating, Bedstraw (bedstraw; [4]) | Blackgrass plant response rating (blackgrass; [1]) | Plant response rating, Rape (rape; [4]) | Corn plant response rating (corn; [2]) | Plant response rating, Corn (corn; [3]) | Plant response rating, Corn (corn; [4]) | Giant foxtail plant response rating (giant foxtail; [1]) | Giant foxtail plant response rating (giant foxtail; [2]) | Plant response rating, Sugarbeets (sugar beet; [4]) | Crabgrass plant response rating (crabgrass; [1]) | Crabgrass plant response rating (crabgrass; [2]) | Plant response rating, Crabgrass (crabgrass; [3])
0: Bedstraw plant response rating (bedstraw; [1]) | Morningglory plant response rating (morningglory; [1]) | Morningglory plant response rating (morningglory; [2]) | Plant response rating, Morningglory (morningglory; [3]) | Plant response rating, Morningglory (morningglory; [4]) | Nutsedge plant response rating (purple nutsedge; Rate 62 g/ha) | Velvetleaf plant response rating (velvetleaf; [1]) | Velvetleaf plant response rating (velvetleaf; [2]) | Plant response rating, Velvetleaf (velvetleaf; [3]) | Plant response rating, Velvetleaf (velvetleaf; [4]) | Cocklebur plant response rating (cocklebur; [1]) | Cocklebur plant response rating (cocklebur; [2]) | Plant response rating, Cocklebur (cocklebur; [3]) | Plant response rating, Cocklebur (cocklebur; [4]) | Soybean plant response rating (soybean; [1])
6: Plant response rating, Nutsedge (purple nutsedge; Rate 500 g/ha) | Wheat plant response rating (wheat; [1]) | Sugarbeets plant response rating (sugar beet; [1]) | Redroot pigweed plant response rating (pigweed; [1]) | Plant response rating, Soybean (soybean; [4])
